In patent publication US20050020582A1 (priority 2001, published 2005):
Read-outs that look alike come from different tables or passages of the source.

Columns and labels:
[1] = tested on: neuroblastoma cells (ScN2a); conditions: mouse
[2] = human, in vivo, cited from earlier work

In the case of `CN(C)CCCN1c2ccccc2Sc2ccc(Cl)cc21` [chlorpromazine], the “decrease in cell population (cytotoxic effects)” value [1] is reported as 50%.

For `CCN(CC)CCCC(C)Nc1c2ccc(Cl)cc2nc2ccc(OC)cc12` (stereo not shown) [quinacrine], the “concentrations without cytotoxic effects on neuroblastoma cells” value [1] was < 5 µM.

In the case of `CSc1ccc2c(c1)N(CCC1CCCCN1C)c1ccccc1S2` (stereo not shown) [thioridazine], the brain concentration ([2]; po) is listed as “more than 80 μM” and the brain concentration [2] is listed as 20 µM.
